Values joined by “and” are separate entries in the source; they are usually repeats but may differ in a detail not shown here. Equal values may be shown once. “Also recorded” adds a separate entry of the source. Read-outs that look alike come from different tables or passages of the source.
Assays:
HepG2 cells [1] = experiment: Cellular antioxidant activity (CAA) assay: inhibition of peroxyl radical-induced DCFH oxidation; type: cell-based, human; settings: for CAA value / percent of the antioxidant activity of quercetin in the CAA assay: Example 1; for CAA value: pure compounds, EC50 converted to quercetin equivalents; for percent of the antioxidant activity of quercetin in the CAA assay: summary statement
Method: Cells (e.g., human hepatocellular carcinoma cells; HepG2) are seeded at a density of e.g., 6×10^4/well on a 96-well microplate in 100 μL growth medium/well. It is preferred that only the inside wells of e.g., a 96-well microplate are used for the assay, since the outer wells have increased variation compared to that of the inner wells. Twenty-four hours after seeding the growth medium is removed and the wells are washed with PBS. Triplicate wells are treated for 1 h with 100 μL of a test compound (e.g., pure phytochemical compounds or fruit extracts) plus 25 μM DCFH-DA dissolved in treatment medium.
600 μM ABAP is then applied to the cells in 100 μL HBSS and the 96-well microplate is placed into a plate reader e.g., Fluoroskan Ascent FL plate-reader (ThermoLabsystems, Franklin, Mass.) at 37° C. Emission at 538 nm is measured with excitation at 485 nm, for example every 5 min for 1 h. Each plate should include triplicate control and blank wells: control wells contain cells treated with DCFH-DA and oxidant; blank wells contain cells treated with dye and HBSS without oxidant.
A test compound is assayed in multiple wells of e.g., a 96-well cell culture plate. Some wells are washed with 100 μL of phosphate-buffered saline (PBS) prior to the addition of ABAP, while other wells were not washed prior to the addition of ABAP. It was noted that the measured antioxidant activity of some fruit extracts (e.g., blueberries) was different when a PBS wash was used compared to when there was no PBS wash (see Table 2; FIGS. 3 and 4). This is likely due to non-specific binding of certain antioxidant compounds to the outer membrane, or a reduced uptake of the compound, thus the ratio of antioxidant activity values obtained with a PBS wash compared to a non-PBS wash indicates the bioavailability of the test compound. In order to accurately measure the intracellular antioxidant activity of a test compound, a PBS wash prior to the addition of a peroxyl initiator (e.g, ABAP) is necessary. The values obtained for cells assayed using a PBS wash should be compared to values obtained for the same cells assayed without a PBS wash. One of skill in the art can plan and perform experiments on a test compound in the presence and absence of a PBS wash, in order to accurately assess the intracellular antioxidant capacity of the test compound.
After blank subtraction from the fluorescence readings, the area under the curve of fluorescence versus time is integrated to calculate the cellular antioxidant activity (CAA) value at each concentration of pure phytochemical compound or fruit extract as follows:
where ∫SA is the integrated area under the sample fluorescence versus time curve and ∫CA is the integrated area from the control curve. The median effective dose (EC50) was determined for the pure phytochemical compounds and fruit extracts from the median effect plot of log (fa/fu) vs. log (dose), where fa is the fraction affected and fu is the fraction unaffected by the treatment. To quantify intra-experimental variation, the EC50 values are stated as mean±SD for triplicate sets of data obtained from the same experiment. Inter-experimental variation is obtained for some representative pure phytochemical compounds and fruit extracts by averaging the fluorescence values from triplicate wells in each trial to obtain one EC50 value per experiment and calculating the mean±SD for at least four trials. In each experiment, a standard is used, for example quecetin, thus permitting the cellular antioxidant activities for a test compounds to be expressed as μmol quercetin equivalents (QE)/100 μmol compound. Fruit extracts are expressed as μmol QE/100 g fruit. In order to compare the antioxidant quality of different fruits, cellular antioxidant activity (CAA) is also calculated as μmol QE/100 μmol total phenolics.
Human hepatocellular carcinoma HepG2 cells were seeded at a density of 6×10^4/well on a 96-well microplate in 100 μL growth medium/well. […]

HepG2 cells [2] = experiment: in vitro; settings: human, 24 h
Method: (§1) Briefly, HepG2 cells are seeded at 4×10^4/well on a 96-well plate in 100 μL growth medium and incubated for 24 h at 37° C. The medium is removed and the cells are washed with PBS. Treatments of fruit extracts or antioxidant compounds in 100 μL treatment medium (Williams' Medium E supplemented with 2 mM L-glutamine and 10 mM Hepes) are applied to the cells and the plates are incubated at 37° C. for 24 h. The treatment medium is removed and the cells are washed with PBS. A volume of 50 μL/well methylene blue staining solution (98% HBSS, 0.67% glutaraldehyde, 0.6% methylene blue) is applied to each well and the plate is incubated at 37° C. for 1 h.
(§2) Excess dye is removed by immersing the plate in fresh deionized water until the water appears clear. The excess water should be tapped out of the wells and the plate allowed to air-dry briefly before addition of 100 μL elution solution (49% PBS, 50% ethanol, 1% acetic acid) to each well. The microplate is then placed on a bench-top shaker for 20 minutes to allow uniform elution. The absorbance is read at 570 nm with blank subtraction using, for example a MRX II DYNEX spectrophotometer (DYNEX Inc., Chantilly, Va.). Concentrations of pure compounds or fruit extracts that decrease the absorbance by more than 10% when compared to the control are considered to be cytotoxic.
(§3) Cytotoxicity was measured using the method of Oliver et al. (31) with modifications by our laboratory (32). […] The medium was removed and the cells were washed with PBS. Treatments of fruit extracts or antioxidant compounds in 100 μL treatment medium (Williams' Medium E supplemented with 2 mM L-glutamine and 10 mM Hepes) were applied to the cells and the plates were incubated at 37° C. for 24 h. The treatment medium was removed and the cells were washed with PBS. A volume of 50 μL/well methylene blue staining solution (98% HBSS, 0.67% glutaraldehyde, 0.6% methylene blue) was applied to each well and the plate was incubated at 37° C. for 1 h. The dye was removed and the plate was immersed in fresh deionized water three times, or until the water was clear. The water was tapped out of the wells and the plate was allowed to air-dry briefly before 100 μL elution solution (49% PBS, 50% ethanol, 1% acetic acid) was added to each well. The microplate was placed on a bench-top shaker for 20 minutes to allow uniform elution. The absorbance was read at 570 nm with blank subtraction using the MRX II DYNEX spectrophotometer (DYNEX Inc., Chantilly, Va.). Concentrations of pure compounds or fruit extracts that decreased the absorbance by more than 10% when compared to the control were considered to be cytotoxic.
(§4) The median cytotoxic concentration (CC50) was calculated for each fruit.
(§5) Briefly, HepG2 cells were seeded at 4×10^4/well on a 96-well plate in 100 μL growth medium and incubated for 24 h at 37° C. The medium was removed, and the cells were washed with PBS. Flavonoids in 100 μL growth medium were applied to the cells, and the plates were incubated at 37° C. for 24 h. The medium was removed, and the cells were washed with PBS before a volume of 50 μL/well methylene blue staining solution (98% HBSS, 0.67% glutaraldehyde, 0.6% methylene blue) was applied to each well, and the plate was incubated at 37° C. for 1 h. The dye was removed, and the plate was immersed in fresh deionized water until the water was clear. The water was tapped out of the wells, and the plate was allowed to air-dry briefly before 100 μL of elution solution (49% PBS, 50% ethanol, 1% acetic acid) was added to each well. The microplate was placed on a benchtop shaker for 20 min to allow uniform
(§6) elution. The absorbance was read at 570 nm with blank subtraction using the MRX II Dynex spectrophotometer (Dynex Inc., Chantilly, Va.). The median cytotoxic concentration (CC50) was calculated for each flavonoid.

[3] = Oxygen radical absorbance capacity (ORAC) assay; settings: Example 3; flavonoids; mean ± SD, n ≧ 3
Method: The peroxyl radical scavenging efficacy of selected fruits was measured using the ORAC assay (Prior, R. L., et al (2003) J. Agric. Food Chem. 51:3273-3279). Briefly, 20 μL of blank, Trolox standard, or fruit extracts in 75 mM potassium phosphate buffer, pH 7.4 (working buffer), was added to triplicate wells in a black, clear-bottom, 96-well microplate. The triplicate samples were distributed throughout the microplate and were not placed side-by-side, to avoid any effects on readings due to location. In addition, no outside wells were used, as use of those wells results in greater variation. A volume of 200 μL of 0.96 μM fluorescein in working buffer was added to each well and incubated at 37° C. for 20 min, with intermittent shaking, before the addition of 20 μL of freshly prepared 119 mM ABAP in working buffer using a 12-channel pipetter. The microplate was immediately inserted into a Fluoroskan Ascent FL plate reader (ThermoLabsystems) at 37° C. The decay of fluorescence at 538 nm was measured with excitation at 485 nm every 4.5 min for 2.5 h. The areas under the fluorescence versus time curve for the samples minus the area under the curve for the blank were calculated and compared to a standard curve of the areas under the curve for 6.25, 12.5, 25, and 50 μM Trolox standards minus the area under the curve for blank. ORAC values were expressed as mean micromoles of Trolox equivalents (TE) per 100 g of fruit±SD for triplicate data from one experiment.
ORAC measurements were performed as described herein in Example 2.

in vitro = settings: human
Method: as §1, §2, §3, §4, §5, §6

[4] = Homo sapiens, HepG2, Example 1, Table 1, PBS wash, pure phytochemical compounds, mean ± SD, n=3, read-out: EC50 for inhibition of peroxyl radical-induced DCFH oxidation
[5] = Homo sapiens, HepG2, Example 1, Table 1, no PBS wash, pure phytochemical compounds, mean ± SD, n=3, read-out: EC50 for inhibition of peroxyl radical-induced DCFH oxidation
[6] = CAA assay, either protocol or protocol not specified
[7] = Example 3, Table 7, PBS wash, flavonoids, mean ± SD, n=3
[8] = Example 3, Table 7, no PBS wash, flavonoids, mean ± SD, n=3

## O=C1O[C@H]([C@@H](O)CO)C(O)=C1O [Ascorbic acid, ascorbic acid]
HepG2 cells [1]; no PBS wash
  CAA value: 8.84±1.18 μmol QE/100 μmol
HepG2 cells [1]
  percent of the antioxidant activity of quercetin in the CAA assay: less than ten percent
HepG2 cells [1]; [4]
  EC50: > 500 µM
HepG2 cells [1]; [5]
  EC50: 67.5 ± 9.4 µM
HepG2 cells [1]; PBS wash protocol
  cellular antioxidant activity, result in words: low
HepG2 cells [2]
  Cytotoxicity (cytotoxic concentration): >500 µM

## O=C(O)/C=C/c1ccc(O)c(O)c1 [Caffeic acid, caffeic acid]
HepG2 cells [1]; no PBS wash
  CAA value: 5.59±0.70 μmol QE/100 μmol
HepG2 cells [1]
  percent of the antioxidant activity of quercetin in the CAA assay: less than ten percent
HepG2 cells [1]; [4]
  EC50: 525 ± 38 µM
HepG2 cells [1]; [5]
  EC50: 95.3 ± 15.3 µM
HepG2 cells [2]
  Cytotoxicity (cytotoxic concentration): >500 µM

## COc1cc(/C=C/C(=O)O)ccc1O [Ferulic acid, ferulic acid]
HepG2 cells [1]; [4]
  EC50: > 500 µM
HepG2 cells [1]; [5]
  EC50: > 250 µM
HepG2 cells [1]; no PBS wash protocol
  cellular antioxidant activity, result in words: low activity within the doses tested
HepG2 cells [2]
  Cytotoxicity (cytotoxic concentration): >500 µM

## O=c1cc(-c2ccc(O)cc2)oc2cc(O)cc(O)c12 [apigenin]
[3]
  ORAC: 10.7 ± 1.5 bc μmol of TE/μmol
HepG2 cells [1]; [6]
  cellular antioxidant activity, result in words: no cellular antioxidant activity; also recorded: no CAA
HepG2 cells [1]; [7]
  EC50: no activity
HepG2 cells [1]; [8]
  EC50: no activity
In vitro
  CC50 at 24 h: > 80 µM

## O=c1cc(-c2ccccc2)oc2cc(O)cc(O)c12 [chrysin]
HepG2 cells [1]; [6]
  cellular antioxidant activity, result in words: no activity
HepG2 cells [1]; [7]
  EC50: no activity
HepG2 cells [1]; [8]
  EC50: no activity
In vitro
  CC50 at 24 h: > 200 µM

## O=c1c(-c2ccc(O)cc2)coc2cc(O)ccc12 [daidzein]
[3]
  ORAC: 8.52 ± 2.11 cde μmol of TE/μmol
HepG2 cells [1]; [6]
  cellular antioxidant activity, result in words: no cellular antioxidant activity
HepG2 cells [1]; [7]
  EC50: no activity
HepG2 cells [1]; [8]
  EC50: no activity
In vitro; HepG2 cells
  CC50 at 24 h: > 100 µM

## C[C@@H]1O[C@@H](OC[C@H]2O[C@@H](Oc3c(-c4ccc(O)c(O)c4)oc4cc(O)cc(O)c4c3=O)[C@H](O)[C@@H](O)[C@@H]2O)[C@H](O)[C@H](O)[C@H]1O [rutin]
HepG2 cells [1]; [6]
  cellular antioxidant activity, result in words: no activity
HepG2 cells [1]; [7]
  EC50: no activity
HepG2 cells [1]; [8]
  EC50: no activity
In vitro; HepG2 cells
  CC50 at 24 h: > 200 µM

## (+)-catechin
[3]
  ORAC: 12.4±4.0 μmol of TE/μmol and 12.4 ± 4.0 ab μmol of TE/μmol
HepG2 cells [1]; [6]
  cellular antioxidant activity, result in words: low or no cellular antioxidant activity; also recorded: low CAA
HepG2 cells [1]; Example 1, Table 1, PBS wash, pure phytochemical compounds, mean ± SD, n=3, read-out: EC50 for inhibition of peroxyl radical-induced DCFH oxidation
  EC50: > 500 µM
HepG2 cells [1]; Example 1, Table 1, no PBS wash, pure phytochemical compounds, mean ± SD, n=3, read-out: EC50 for inhibition of peroxyl radical-induced DCFH oxidation
  EC50: 292 ± 32 µM
HepG2 cells [1]; no PBS wash
  CAA value: 2.03±0.24 μmol QE/100 μmol
HepG2 cells [1]
  percent of the antioxidant activity of quercetin in the CAA assay: less than ten percent
HepG2 cells [1]; Example 3, Table 7, PBS wash, flavonoids, mean ± SD, n=3, read-out: EC50
  EC50: > 800 µM
HepG2 cells [1]; Example 3, Table 7, no PBS wash
  CAA: 2.5 ± 0.1 μmol of QE/100 μmol
HepG2 cells [1]; Example 3, text, no PBS wash, read-out: EC50
  EC50: 360 ± 17 µM
HepG2 cells [1]; PBS wash protocol
  cellular antioxidant activity, result in words: very low, unquantifiable, activity
HepG2 cells [1]; PBS wash protocol, listed as catechin
  cellular antioxidant activity, result in words: low and low activity at the concentrations tested

Source: patent US20110313672A1, “CELLULAR ANTIOXIDANT ACTIVITY (CAA) ASSAY” (CORNELL UNIVERSITY, priority 2007, published 2011)
